Measured values from patent publication US20110130384A1, “AMIDE COMPOUND” (TAKEDA PHARMACEUTICAL COMPANY LIMITED, priority 2008, published 2011).

Molecular target: T1, human GPR52 (Homo sapiens, UniProt Q9Y2T5)
T1 construct: expressed in transfected cells; host or cells: CHO(dhfr-) cells
Experiment: Increase of intracellular cAMP concentration in human GPR52-expressing CHO cell (AlphaScreen cAMP assay)
Format: cell-based
Details: 1 μM test compound, human GPR52-expressing CHO(dhfr-) cells, 37° C. for 30 min; intracellular cAMP with 1 μM Reference Example 124 = 100%, DMSO = 0%
Procedure: Increase of Intracellular cAMP Concentration in Human GPR52-Expressing CHO Cell
Using OptiPlate-384 (PerkinElmer Inc.), 1×10^4 human GPR52-expressing CHO(dhfr-) cells were incubated together with 1 μM of a test compound in an assay buffer (30 μL, HBSS (containing Ca^2+ and Mg^2+), 0.5% BSA, 100 μm IBMX, 100 μm Ro20-1724, 5 mM HEPES (pH 7.55)) at 37° C. for 30 min. Thereafter, according to the protocol of AlphaScreen cAMP Assay Kit (PerkinElmer Inc.), the intracellular cAMP concentration was measured by EnVision (PerkinElmer Inc.). The GPR52 agonist activity was calculated, assuming the intracellular cAMP concentration in the presence of 1 μM 3-(6-(2-(3,4-dimethoxyphenyl)ethoxy)pyridin-2-yl)-N-(2-pyrrolidin-1-ylethyl)benzamide (Reference Example 124) to be 100% and assuming the intracellular cAMP concentration when DMSO was added instead of the test compound to be 0%.

T1 sequence (Q9Y2T5 whole entry): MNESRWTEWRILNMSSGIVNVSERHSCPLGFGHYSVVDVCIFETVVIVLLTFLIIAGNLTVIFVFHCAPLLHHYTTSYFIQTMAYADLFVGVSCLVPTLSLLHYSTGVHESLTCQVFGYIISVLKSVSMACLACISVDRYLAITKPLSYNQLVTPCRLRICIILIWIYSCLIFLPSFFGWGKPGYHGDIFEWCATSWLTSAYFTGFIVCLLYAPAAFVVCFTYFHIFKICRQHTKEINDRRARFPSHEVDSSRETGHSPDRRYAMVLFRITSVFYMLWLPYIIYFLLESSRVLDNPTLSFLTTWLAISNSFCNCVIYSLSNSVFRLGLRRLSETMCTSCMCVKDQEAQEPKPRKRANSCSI

Row | SMILES | GPR52 agonist activity (%)
1 | O=C(Nc1cccnc1)c1cccc(-c2ccc3c(c2)C(Oc2ccc(Cl)cc2Cl)CC3)c1 (stereo not shown) [Example 80, 3-[3-(2,4-dichlorophenoxy)-2,3-dihydro-1H-inden-5-yl]-N-pyridin-3-ylbenzamide] | 70%
2 | O=C(NC1CC1)c1cccc(-c2ccc3c(c2)C(Oc2ccc(Cl)cc2Cl)CC3)c1 (stereo not shown) [Example 78, N-cyclopropyl-3-[3-(2,4-dichlorophenoxy)-2,3-dihydro-1H-inden-5-yl]benzamide] | 59%
3 | O=C(NCCO)c1cccc(-c2ccc3c(n2)N(c2ccc(Cl)cc2Cl)CC3)c1 [Example 35, 3-[1-(2,4-dichlorophenyl)-2,3-dihydro-1H-pyrrolo[2,3-b]pyridin-6-yl]-N-(2-hydroxyethyl)benzamide] | 81%
4 | O=C(NCCO)c1cccc(-c2ccc3ccn(-c4ccc(Cl)cc4Cl)c3n2)c1 [Example 33, 3-[1-(2,4-dichlorophenyl)-1H-pyrrolo[2,3-b]pyridin-6-yl]-N-(2-hydroxyethyl)benzamide] | 61%
5 | O=C(NCCO)c1cccc(-c2ccc3c(c2)C(Oc2ccc(Cl)cc2Cl)CC3)c1 (stereo not shown) [Example 74, 3-[3-(2,4-dichlorophenoxy)-2,3-dihydro-1H-inden-5-yl]-N-(2-hydroxyethyl)benzamide] | 76%
6 | O=C(NCCO)c1cccc(-c2ccc3c(c2)N(c2cc(Cl)ccc2Cl)CC3)c1 [Example 5, 3-[1-(2,5-dichlorophenyl)-2,3-dihydro-1H-indol-6-yl]-N-(2-hydroxyethyl)benzamide] | 75%
7 | O=C(NCCO)c1cccc(-c2ccc3c(c2)N(c2ccc(Cl)c(Cl)c2)CC3)c1 [Example 7, 3-[1-(3,4-dichlorophenyl)-2,3-dihydro-1H-indol-6-yl]-N-(2-hydroxyethyl)benzamide] | 67%
8 | COc1ccc(CCn2cnc3ccc(-c4cccc(C(=O)NCCN5CCCC5)c4)nc32)cc1OC [Example 45, 3-[3-[2-(3,4-dimethoxyphenyl)ethyl]-3H-imidazo[4,5-b]pyridin-5-yl]-N-(2-pyrrolidin-1-ylethyl)benzamide] | 79%
9 | C[S+]([O-])CCNC(=O)c1cccc(-c2ccc3c(c2)C(Oc2ccc(Cl)cc2Cl)CC3)c1 (stereo not shown) [Example 76, 3-[3-(2,4-dichlorophenoxy)-2,3-dihydro-1H-inden-5-yl]-N-[2-(methylsulfinyl)ethyl]benzamide] | 80%
10 | N#CCCNC(=O)c1cccc(-c2ccc3c(c2)N(c2ccc(Cl)c(Cl)c2)CC3)c1 [Example 6, N-(2-cyanoethyl)-3-[1-(3,4-dichlorophenyl)-2,3-dihydro-1H-indol-6-yl]benzamide] | 59%
